Measurements reported in the Kinase Knowledgebase extract (Sharma et al. 2016).

Target: MAPK14 (UniProt Q16539)
Assay: p38-alpha Inhibition
Conditions: not given

Chain of MAPK14 (Q16539 whole entry, looked up): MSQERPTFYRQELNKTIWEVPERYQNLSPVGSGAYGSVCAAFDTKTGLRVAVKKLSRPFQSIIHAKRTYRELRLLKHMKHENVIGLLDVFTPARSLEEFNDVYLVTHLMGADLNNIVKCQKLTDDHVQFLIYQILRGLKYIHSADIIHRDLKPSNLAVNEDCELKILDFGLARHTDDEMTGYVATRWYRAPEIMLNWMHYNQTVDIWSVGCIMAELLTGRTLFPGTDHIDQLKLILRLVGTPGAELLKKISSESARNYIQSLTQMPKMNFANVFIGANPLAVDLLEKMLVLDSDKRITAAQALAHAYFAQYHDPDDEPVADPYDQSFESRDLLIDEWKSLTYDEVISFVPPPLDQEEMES

Question: For Nc1ccc2nc(-c3ccccc3F)nc(Nc3ccncc3)c2c1, which IC50 is on record?
Answer: 800 nM

Question: With COc1cccc(Nc2nc(-c3ccccc3)nc3ccccc23)c1 as the compound, how does the IC50 read?
Answer: 800 nM

Question: Which IC50 does the source give for c1ccc(-c2nc(NCc3ccncc3)c3ccccc3n2)cc1 here?
Answer: 800 nM

Question: For Fc1ccccc1-c1nc(Nc2ccncc2)c2ccccc2n1, which IC50 is on record?
Answer: 800 nM

Question: For c1ccc(-c2nc(Nc3ccncc3)c3ccccc3n2)cc1, which IC50 is on record?
Answer: 800 nM

Question: Cc1ccccc1-c1nc(Nc2ccncc2)c2ccccc2n1 was tested. Which IC50 did it give?
Answer: 800 nM

Question: With Brc1ccccc1-c1nc(Nc2ccncc2)c2ccccc2n1 as the compound, how does the IC50 read?
Answer: 800 nM

Question: Clc1ccccc1-c1nc(Nc2ccncc2)c2ccccc2n1 was tested. Which IC50 did it give?
Answer: 800 nM

Question: For Fc1ccc(-c2nc(Nc3ccncc3)c3ccccc3n2)cc1, which IC50 is on record?
Answer: 800 nM

Same assay, conditions: concentration not given here

Question: How did the inhibition turn out when COc1ccc(C(=O)Nc2ccc3nc(-c4ccccc4F)nc(Nc4ccncc4)c3c2)cc1 was run?
Answer: > 90%

Question: With Nc1ccc2nc(-c3ccccc3F)nc(Nc3ccncc3)c2c1 as the compound, how does the inhibition read?
Answer: > 90%

Question: How did the inhibition turn out when Nc1ccc2c(Nc3ccncc3)nc(-c3ccc(F)cc3)nc2c1 was run?
Answer: > 90%

Question: O=[N+]([O-])c1ccc2nc(-c3ccccc3F)nc(Nc3ccncc3)c2c1 was tested. Which inhibition did it give?
Answer: > 90%

Question: With COc1cccc(CNc2ccc3nc(-c4ccccc4F)nc(Nc4ccncc4)c3c2)c1 as the compound, how does the inhibition read?
Answer: > 90%

Question: For Nc1ccc2c(Nc3ccncc3)nc(-c3ccccc3F)nc2c1, which inhibition is on record?
Answer: > 90%

Question: Which inhibition does the source give for CSc1ccc(CNc2ccc3nc(-c4ccccc4F)nc(Nc4ccncc4)c3c2)cc1 here?
Answer: > 90%

Question: For COc1cccc(CNc2ccc3c(Nc4ccncc4)nc(-c4ccc(F)cc4)nc3c2)c1, which inhibition is on record?
Answer: > 90%

Question: CC(C)CNc1ccc2nc(-c3ccccc3F)nc(Nc3ccncc3)c2c1 was tested. Which inhibition did it give?
Answer: > 90%

Question: For COc1cc2nc(-c3ccccc3Cl)nc(Nc3ccncc3)c2cc1OC, which inhibition is on record?
Answer: > 90%

Question: For COc1ccc(CNc2ccc3nc(-c4ccccc4F)nc(Nc4ccncc4)c3c2)cc1, which inhibition is on record?
Answer: > 90%
